In PMC9261792 (Journal of Food and Drug Analysis, 2021):

Molecular target: T1, hSGLT1 (Homo sapiens, UniProt P13866)
T1 sequence (P13866 1-664): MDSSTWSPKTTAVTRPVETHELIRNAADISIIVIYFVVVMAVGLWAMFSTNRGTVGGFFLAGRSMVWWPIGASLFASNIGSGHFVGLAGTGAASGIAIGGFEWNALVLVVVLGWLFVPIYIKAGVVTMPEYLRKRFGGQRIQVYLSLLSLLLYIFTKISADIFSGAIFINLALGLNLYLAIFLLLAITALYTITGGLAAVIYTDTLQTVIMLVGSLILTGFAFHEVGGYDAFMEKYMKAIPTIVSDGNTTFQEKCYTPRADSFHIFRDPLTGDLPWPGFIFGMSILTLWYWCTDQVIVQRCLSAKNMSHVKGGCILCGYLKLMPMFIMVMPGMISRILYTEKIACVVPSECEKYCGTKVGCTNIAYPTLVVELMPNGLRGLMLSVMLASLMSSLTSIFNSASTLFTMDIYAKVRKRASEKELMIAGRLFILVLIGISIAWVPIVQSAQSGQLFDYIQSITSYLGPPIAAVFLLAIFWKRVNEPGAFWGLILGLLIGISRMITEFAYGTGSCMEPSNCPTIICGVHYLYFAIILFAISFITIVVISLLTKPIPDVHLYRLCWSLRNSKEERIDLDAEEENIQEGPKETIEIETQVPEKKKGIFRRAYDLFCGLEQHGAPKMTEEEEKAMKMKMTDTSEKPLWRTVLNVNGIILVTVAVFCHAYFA
Test: 1-NBDG uptake inhibition in COS-7 cells expressing hSGLT1, single dose […]
Type: cell-based
Settings: COS-7, read-out: % Uptake via / hSGLT1

activity at 50 µM: 33.1 ± 0.85%
Structure (SMILES): O=C(/C=C/c1ccc(O)cc1)OC[C@H]1O[C@@H](Oc2c(-c3ccc(O)cc3)oc3cc(O)cc(O)c3c2=O)[C@H](O)[C@@H](O)[C@@H]1O [compound 15, Tiliroside]
